The assay relates to Pyrenophora teres. The experiment in a line: Pyrenophora teres test (barley)/curative. The assay is classed as in vivo. The note with it: curative, application rate 100 g/ha, evaluation 7 days after inoculation. The protocol:
Pyrenophora teres Test (Barley)/Curative • Solvent: 25 parts by weight of N,N-dimethylacetamide • Emulsifier: 0.6 part by weight of alkylaryl polyglycol ether To produce a suitable preparation of active compound, 1 part by weight of active compound is mixed with the stated amounts of solvent and emulsifier, and the concentrate is diluted with water to the desired concentration. To test for curative activity, young plants are sprayed with a conidia suspension of Pyrenophora teres. The plants remain in an incubation cabin at 20° C. and 100% relative atmospheric humidity for 48 hours. The plants are then sprayed with the preparation of active compound at the stated application rate. The plants are placed in a greenhouse at a temperature of about 20° C. and a relative atmospheric humidity of about 80%. Evaluation is carried out 7 days after the inoculation. 0% means an efficacy which corresponds to that of the control, whereas an efficacy of 100% means that no infection is observed.
Compound `CON=C(C(=O)OC)c1ccccc1CO/N=C(\C)c1cccc(C(F)(F)F)c1` [Ex. (I)] had an Efficacy in % of 67%. Consider `OC(Cc1ccccc1Cl)(Cn1nc[nH]c1=S)C1(Cl)CC1` (stereo not drawn) [Ex. (II)], for which the Efficacy in % amounted to 56%. The result for `CC(C)(C)C(O)(CCc1ccc(Cl)cc1)Cn1cncn1` (stereo not drawn) [Ex. (III)] reads 22%.

Source of the values: patent US20060035942A1, “Fungicidal combinations of active substances” (priority 2002, published 2006).
